Laboratory results as given in paper PMC11565046, “Rational design of 2H-chromene-based antiphytovirals that inhibit virion assembly by outcompeting virus capsid-RNA interactions” (iScience, 2024).
Read-outs that look alike come from different tables or passages of the source.

Assays:
PVY = assay: Inactivating activity against PVY, half-leaf method on Chenopodium amaranticolor; assay type: in vivo, potato virus Y; settings: Potato virus Y, in Chenopodium amaranticolor
Protocol: According to previous reports,[46] PVY was infested in Nicotiana tabacum K326, and PVY was harvested and purified after showing severe infection symptoms on the leaves. The literature-guided protocol was followed to assess the curative, prophylactic, and […] potential of the target compounds under investigation.[15]
Target compound solution (1,000 μg/mL) and 2 × virus solution were combined in equal quantities and incubated for 30 min. Evenly distribute emery onto the leaf blades, and apply the mixture of virus and compound solution onto the right side of C. amaranticolor leaf blades. Following this, an identical quantity of a 1× virus solution was applied to the untreated side of the leaf. Following a duration of 1.5 h, the emery residue present on the leaf surface was removed using a rinsing process utilizing water. The plants were incubated within a controlled greenhouse environment, maintaining a consistent temperature of 25°C. After 5−7 days, they proceeded to statistics the number of necrotic spots on the leaves. For each chemical, triplicate experiments were undertaken, and the average percentage of inhibition was subsequently determined.

[1] = Chenopodium amaranticolor leaves, read-out: EC50 for inactivating activity
[2] = inactivating activity, Table S1, read-out: Experimental pEC50 (converted)

For COc1ccc(S(=O)(=O)Nc2ccc(/N=C/c3ccc4c(c3O)C=CC(C)(C)O4)cc2)cc1 [Compound C1, (E) -N-(4-(((5-hydroxy-2,2-dimethyl-2H-chromen-6-yl)methylene)amino)phenyl) -4-methoxybenzenesulfonamide], the melting point was 139 to 141 °C, the EC50 (PVY; [1]) was 441 ± 5.2 µg/mL and the EC50 (PVY; [2]) was 951 µM.

In the case of CC1(C)C=Cc2c(ccc(/C=N/c3ccc(NS(=O)(=O)c4ccc(C(F)(F)F)cc4)cc3)c2O)O1 [Compound C2], the melting point is reported as 132 to 134 °C, the EC50 (PVY; [1]) is reported as 255.7 ± 0.72 µg/mL and the EC50 (PVY; [2]) is reported as 509 µM.

CCCCCCCCS(=O)(=O)Nc1ccc(/N=C/c2ccc3c(c2O)C=CC(C)(C)O3)cc1 [Compound C3] gave a melting point of 94 to 96 °C, an EC50 (PVY; [1]) of 605 ± 12.2 µg/mL and an EC50 (PVY; [2]) of 1290 µM.

In the case of CC1(C)C=Cc2c(ccc(/C=N/c3ccc(NS(=O)(=O)c4cccs4)cc3)c2O)O1 [Compound C4], the melting point is reported as 148 to 150 °C, the EC50 (PVY; [1]) is reported as 667 ± 20.1 µg/mL and the EC50 (PVY; [2]) is reported as 1520 µM.

CC1(C)C=Cc2c(ccc(/C=N/c3ccc(NS(=O)(=O)c4ccc(F)cc4)cc3)c2O)O1 [Compound C5] gave a melting point of 144 to 146 °C, an EC50 (PVY; [1]) of 165 ± 8.7 µg/mL and an EC50 (PVY; [2]) of 366 µM.

CC1(C)C=Cc2c(ccc(/C=N/c3ccc(NS(=O)(=O)c4ccccc4F)cc3)c2O)O1 [Compound C8] gave a melting point of 175 to 177 °C, an EC50 (PVY; [1]) of 369 ± 9.9 µg/mL and an EC50 (PVY; [2]) of 667 µM.

With CC1(C)C=Cc2c(ccc(/C=N/c3ccc(NS(=O)(=O)c4cccnc4)cc3)c2O)O1 [Compound C9] the melting point was 150 to 152 °C, the EC50 (PVY; [1]) was 310 ± 8.6 µg/mL and the EC50 (PVY; [2]) was 713 µM.

For CC1(C)C=Cc2c(ccc(/C=N/c3ccc(NS(=O)(=O)c4cccc(C#N)c4)cc3)c2O)O1 [Compound C11], the melting point was 152 to 154 °C, the EC50 (PVY; [1]) was 703 ± 25.3 µg/mL and the EC50 (PVY; [2]) was 1530 µM.

With CC1(C)C=Cc2c(ccc(/C=N/c3ccc(NS(=O)(=O)c4ccc([N+](=O)[O-])cc4)cc3)c2O)O1 [Compound C12] the melting point was 164 to 166 °C, the EC50 (PVY; [1]) was 400 ± 7.5 µg/mL and the EC50 (PVY; [2]) was 836 µM.

CC1(C)C=Cc2c(ccc(/C=N/c3ccc(NS(=O)(=O)C4CC4)cc3)c2O)O1 [Compound C13] showed a melting point of 147 to 149 °C, an EC50 (PVY; [1]) of 531 ± 20.7 µg/mL and an EC50 (PVY; [2]) of 1330 µM.

CC1(C)C=Cc2c(ccc(/C=N/c3ccc(NS(=O)(=O)c4cc(Cl)ccc4Cl)cc3)c2O)O1 [Compound C14] showed a melting point of 148 to 150 °C, an EC50 (PVY; [1]) of 751 ± 19.4 µg/mL and an EC50 (PVY; [2]) of 1500 µM.

In the case of CC1(C)C=Cc2c(ccc(/C=N/c3ccc(NS(=O)(=O)c4cc(F)ccc4F)cc3)c2O)O1 [Compound C15], the melting point is reported as 180 to 182 °C, the EC50 (PVY; [1]) is reported as 903 ± 14.3 µg/mL and the EC50 (PVY; [2]) is reported as 1920 µM.

For CC1(C)C=Cc2c(ccc(/C=N/c3ccc(NS(=O)(=O)c4ccccc4)cc3)c2O)O1 [Compound C17], the melting point was 134 to 136 °C, the EC50 (PVY; [1]) was 168 ± 4.8 µg/mL and the EC50 (PVY; [2]) was 388 µM.

CCc1ccc(S(=O)(=O)Nc2ccc(/N=C/c3ccc4c(c3O)C=CC(C)(C)O4)cc2)cc1 [Compound C18] showed a melting point of 121 to 123 °C, an EC50 (PVY; [1]) of 202 ± 3.8 µg/mL and an EC50 (PVY; [2]) of 438 µM.

In the case of Cc1cc(C)c(S(=O)(=O)Nc2ccc(/N=C/c3ccc4c(c3O)C=CC(C)(C)O4)cc2)c(C)c1 [Compound C19], the melting point is reported as 137 to 139 °C, the EC50 (PVY; [1]) is reported as 492 ± 11.2 µg/mL and the EC50 (PVY; [2]) is reported as 1040 µM.

CC1(C)C=Cc2c(ccc(/C=N/c3ccc(NS(=O)(=O)c4ccc(C(C)(C)C)cc4)cc3)c2O)O1 [Compound C20] gave a melting point of 142 to 144 °C, an EC50 (PVY; [1]) of 1000 µg/mL and an EC50 (PVY; [2]) of 2050 µM.

CC(=O)Nc1ccc(S(=O)(=O)Nc2ccc(/N=C/c3ccc4c(c3O)C=CC(C)(C)O4)cc2)cc1 [Compound C21] gave a melting point of 161 to 163 °C, an EC50 (PVY; [1]) of 1020 µg/mL and an EC50 (PVY; [2]) of 2080 µM.

For CC1(C)C=Cc2c(ccc(/C=N/c3ccc(NS(=O)(=O)c4ccccc4C(F)(F)F)cc3)c2O)O1 [Compound C22], the melting point was 130 to 132 °C, the EC50 (PVY; [1]) was 587 ± 9.9 µg/mL and the EC50 (PVY; [2]) was 1170 µM.

Compound CC1(C)C=Cc2c(ccc(/C=N/c3ccc(NS(=O)(=O)c4cc(Cl)cc(Cl)c4)cc3)c2O)O1 [Compound C23] has a melting point of 211 to 213 °C, an EC50 (PVY; [1]) of 871 ± 17.3 µg/mL and an EC50 (PVY; [2]) of 1730 µM.
